Data as given in ChEMBL document CHEMBL1150082, “Antheliatin and Zahavins A and B, Three New Cytotoxic Xenicane Diterpenes from Two Soft Corals” (J Nat Prod, 1995).
Values after ≈ are worked out from the molar mass of the structure shown.

Assays:
Type in all cases: functional, cell-based
HT-29 = assay: Cytotoxicity against human HT-29 cells
A549 = assay: Cytotoxicity against human A549 cells
SK-MEL-28 = assay: Cytotoxicity against human SK-MEL-28 cells
P388 = assay: Cytotoxicity against mouse P388 cells

SMILES | IC50 (HT-29) [µg/mL] | IC50 (A549) [µg/mL] | IC50 (SK-MEL-28) [µg/mL] | IC50 (P388) [µg/mL]
C=C1[C@H]2[C@@H](OC(C)=O)OC=C([C@H](OC(C)=O)[C@@H](C=C(C)C)OC(=O)c3ccccc3)[C@H]2CC/C(C)=C/[C@H](OC(C)=O)[C@H]1O [ANTHELIATIN] | 0.1 (≈ 0.168 µM) | 1 (≈ 1.68 µM) | 1 (≈ 1.68 µM) | 1 (≈ 1.68 µM)
C=C(C)C(CC(OC(C)=O)C1=CO[C@H](OC(C)=O)[C@H]2C(=C)CC/C=C(\C)CC[C@H]12)OC(C)=O (some centres not stated) [ZAHAVIN A] | 1 (≈ 2.17 µM) | 1 (≈ 2.17 µM) | 1 (≈ 2.17 µM) | 1 (≈ 2.17 µM)
C=C(C)C(CC(OC(C)=O)C1=CO[C@H](OC(C)=O)[C@@H]2C(=C)[C@H](O)C/C=C(\C)CC[C@H]12)OC(C)=O (some centres not stated) [ZAHAVIN B] | 1 (≈ 2.1 µM) | 1 (≈ 2.1 µM) | 1 (≈ 2.1 µM) | 1 (≈ 2.1 µM)
